Results reported in patent US10787452B2 (Vertex Pharmaceuticals Incorporated, priority 2012, dated 2020).

Test system: HCT116 colorectal cancer cells
Assay: Cisplatin sensitization assay (96 h cell viability MTS);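 further: compound concentration needed to lower the Cisplatin-alone IC50 by a set fold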
Format: cell-based
Details: 96 h MTS, compound plus Cisplatin
Summary of the method: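 Test compound and cisplatin were added together as a full matrix of 2-fold serial dilutions, each from a top final concentration of 10 μM. Cells were incubated 96 h at 37° C in 5% CO2, then viability was read by MTS after a further 1 h incubation.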

SMILES	Cisplatin Sensitization Assay
CN1CCN(C(=O)C2CCN(c3c(F)cncc3NC(=O)c3c(N)nn4cc(Cl)cnc34)CC2)CC1 [I-G-5, 2-amino-6-chloro-N-(5-fluoro-4-(4-(4-methylpiperazine-1-carbonyl)piperidin-1-yl)pyridin-3-yl)pyrazolo[1,5-a]pyrimidine-3-carboxamide]	+++ (Compounds with a Cisplatin sensitization value of <0.02 μM are marked with “+++.”)
CN(C)CCOCCOc1ccncc1NC(=O)c1c(N)nn2cc(Cl)cnc12 [I-O-47, 2-amino-6-chloro-N-(4-(2-(2-(dimethylamino)ethoxy)ethoxy)pyridin-3-yl)pyrazolo[1,5-a]pyrimidine-3-carboxamide]	+ (Compounds with a Cisplatin sensitization value >0.2 μM but <5 μM are marked with “+.”)
Cc1nnc(N2CCN(c3ccncc3NC(=O)c3c(N)nn4cc(F)cnc34)CC2)o1 [I-N-256, 2-amino-6-fluoro-N-(4-(4-(5-methyl-1,3,4-oxadiazol-2-yl)piperazin-1-yl)pyridin-3-yl)pyrazolo[1,5-a]pyrimidine-3-carboxamide]	++ (Compounds with a Cisplatin sensitization value >0.02 μM but <0.2 μM are marked with “++.”)
CS(=O)(=O)CC1CCN(c2ccncc2NC(=O)c2c(N)nn3cc(F)cnc23)CC1 [I-N-215, 2-amino-6-fluoro-N-(4-(4-((methylsulfonyl)methyl)piperidin-1-yl)pyridin-3-yl)pyrazolo[1,5-a]pyrimidine-3-carboxamide]	+++ (Compounds with a Cisplatin sensitization value of <0.02 μM are marked with “+++.”)
Nc1nn2cc(F)cnc2c1C(=O)Nc1cnccc1-c1ccc(C(=O)N2CCN3CCC2CC3)cc1 [I-C-48, N-(4-(4-(1,4-diazabicyclo[3.2.2]nonane-4-carbonyl)phenyl)pyridin-3-yl)-2-amino-6-fluoropyrazolo[1,5-a]pyrimidine-3-carboxamide]	+++ (Compounds with a Cisplatin sensitization value of <0.02 μM are marked with “+++.”)
Cc1ccn(-c2ccncc2NC(=O)c2c(N)nn3cc(F)cnc23)n1 [I-N-225, 2-amino-6-fluoro-N-(4-(3-methyl-1H-pyrazol-1-yl)pyridin-3-yl)pyrazolo[1,5-a]pyrimidine-3-carboxamide]	++ (Compounds with a Cisplatin sensitization value >0.02 μM but <0.2 μM are marked with “++.”)
COC1CCN(C2CCN(c3ccncc3NC(=O)c3c(N)nn4cc(Cl)cnc34)CC2)C1 (stereo not drawn) [I-N-95, 2-amino-6-chloro-N-(4-(4-(3-methoxypyrrolidin-1-yl)piperidin-1-yl)pyridin-3-yl)pyrazolo[1,5-a]pyrimidine-3-carboxamide]	++ (Compounds with a Cisplatin sensitization value >0.02 μM but <0.2 μM are marked with “++.”)
CN1CCN(c2c(Cl)cncc2NC(=O)c2c(N)nn3cc(Cl)cnc23)CC1 [I-N-41, 2-amino-6-chloro-N-(5-chloro-4-(4-methylpiperazin-1-yl)pyridin-3-yl)pyrazolo[1,5-a]pyrimidine-3-carboxamide]	+++ (Compounds with a Cisplatin sensitization value of <0.02 μM are marked with “+++.”)
Nc1nn2cc(F)cnc2c1C(=O)Nc1cnccc1N1CCCCC1 [I-N-152, 2-amino-6-fluoro-N-(4-(piperidin-1-yl)pyridin-3-yl)pyrazolo[1,5-a]pyrimidine-3-carboxamide]	+++ (Compounds with a Cisplatin sensitization value of <0.02 μM are marked with “+++.”)
CN1CC2(CCN(c3ccncc3NC(=O)c3c(N)nn4cc(F)cnc34)CC2)OC1=O [I-N-216, 2-amino-6-fluoro-N-(4-(3-methyl-2-oxo-1-oxa-3,8-diazaspiro[4.5]decan-8-yl)pyridin-3-yl)pyrazolo[1,5-a]pyrimidine-3-carboxamide]	+++ (Compounds with a Cisplatin sensitization value of <0.02 μM are marked with “+++.”)
CC(C)(C)N1CCN(c2ccncc2NC(=O)c2c(N)nn3cc(Cl)cnc23)CC1 [I-N-34, 2-amino-N-(4-(4-(tert-butyl)piperazin-1-yl)pyridin-3-yl)-6-chloropyrazolo[1,5-a]pyrimidine-3-carboxamide]	++ (Compounds with a Cisplatin sensitization value >0.02 μM but <0.2 μM are marked with “++.”)
Nc1nn2cc(F)cnc2c1C(=O)Nc1cnccc1C1CCN(S(=O)(=O)C2CC2)CC1 [I-C-47, 2-amino-N-(4-(1-(cyclopropylsulfonyl)piperidin-4-yl)pyridin-3-yl)-6-fluoropyrazolo[1,5-a]pyrimidine-3-carboxamide]	+++ (Compounds with a Cisplatin sensitization value of <0.02 μM are marked with “+++.”)
Nc1nn2cc(F)cnc2c1C(=O)Nc1cnccc1-c1cccnc1Cl [I-C-37, 2-amino-N-(2-chloro-[3,4′-bipyridin]-3′-yl)-6-fluoropyrazolo[1,5-a]pyrimidine-3-carboxamide]	+++ (Compounds with a Cisplatin sensitization value of <0.02 μM are marked with “+++.”)
Cc1cc(C(=O)N2CCN(C)CC2)ccc1-c1ccncc1NC(=O)c1c(N)nn2cc(F)cnc12 [I-C-45, 2-amino-6-fluoro-N-(4-(2-methyl-4-(4-methylpiperazine-1-carbonyl)phenyl)pyridin-3-yl)pyrazolo[1,5-a]pyrimidine-3-carboxamide]	+++ (Compounds with a Cisplatin sensitization value of <0.02 μM are marked with “+++.”)
Nc1nn2cc(F)cnc2c1C(=O)Nc1cnccc1N1CCC(C(=O)N2CCCC2)CC1 [I-G-83, 2-amino-6-fluoro-N-(4-(4-(pyrrolidine-1-carbonyl)piperidin-1-yl)pyridin-3-yl)pyrazolo[1,5-a]pyrimidine-3-carboxamide]	+++ (Compounds with a Cisplatin sensitization value of <0.02 μM are marked with “+++.”)
N#CCc1cnc2c(C(=O)Nc3cnccc3-c3ccccc3)c(N)nn2c1 [I-C-6, 2-amino-6-(cyanomethyl)-N-(4-phenylpyridin-3-yl)pyrazolo[1,5-a]pyrimidine-3-carboxamide]	+++ (Compounds with a Cisplatin sensitization value of <0.02 μM are marked with “+++.”)
COCCOc1ccncc1NC(=O)c1c(N)nn2cc(Cl)cnc12 [I-O-55, 2-amino-6-chloro-N-(4-(2-methoxyethoxy)pyridin-3-yl)pyrazolo[1,5-a]pyrimidine-3-carboxamide]	++ (Compounds with a Cisplatin sensitization value >0.02 μM but <0.2 μM are marked with “++.”)
N#CC1CN(C(=O)C2CCN(c3ccncc3NC(=O)c3c(N)nn4cc(F)cnc34)CC2)C1 [I-G-81, 2-amino-N-(4-(4-(3-cyanoazetidine-1-carbonyl)piperidin-1-yl)pyridin-3-yl)-6-fluoropyrazolo[1,5-a]pyrimidine-3-carboxamide]	+++ (Compounds with a Cisplatin sensitization value of <0.02 μM are marked with “+++.”)
N#CCc1cnc2c(C(=O)Nc3cnccc3N3CCC(O)CC3)c(N)nn2c1 [I-N-83, 2-amino-6-(cyanomethyl)-N-(4-(4-hydroxypiperidin-1-yl)pyridin-3-yl)pyrazolo[1,5-a]pyrimidine-3-carboxamide]	++ (Compounds with a Cisplatin sensitization value >0.02 μM but <0.2 μM are marked with “++.”)
Nc1nn2cc(F)cnc2c1C(=O)Nc1cnccc1N1CCN(S(=O)(=O)C2CC2)CC1 [I-N-176, 2-amino-N-(4-(4-(cyclopropylsulfonyl)piperazin-1-yl)pyridin-3-yl)-6-fluoropyrazolo[1,5-a]pyrimidine-3-carboxamide]	+++ (Compounds with a Cisplatin sensitization value of <0.02 μM are marked with “+++.”)
Nc1nn2cc(F)cnc2c1C(=O)Nc1cnccc1-c1ccc(C(=O)N2CCN(C3COC3)CC2)cc1 [I-C-49, 2-amino-6-fluoro-N-(4-(4-(4-(oxetan-3-yl)piperazine-1-carbonyl)phenyl)pyridin-3-yl)pyrazolo[1,5-a]pyrimidine-3-carboxamide]	+++ (Compounds with a Cisplatin sensitization value of <0.02 μM are marked with “+++.”)
Nc1nn2cc(F)cnc2c1C(=O)Nc1cnccc1N1CCN(S(=O)(=O)C2COC2)CC1 [I-N-195, 2-amino-6-fluoro-N-(4-(4-(oxetan-3-ylsulfonyl)piperazin-1-yl)pyridin-3-yl)pyrazolo[1,5-a]pyrimidine-3-carboxamide]	+++ (Compounds with a Cisplatin sensitization value of <0.02 μM are marked with “+++.”)
COCCN1CCC[C@H](Oc2ccncc2NC(=O)c2c(N)nn3cc(Cl)cnc23)C1 [I-O-67, (S)-2-amino-6-chloro-N-(4-((1-(2-methoxyethyl)piperidin-3-yl)oxy)pyridin-3-yl)pyrazolo[1,5-a]pyrimidine-3-carboxamide]	++ (Compounds with a Cisplatin sensitization value >0.02 μM but <0.2 μM are marked with “++.”)
Cc1nccnc1-c1ccncc1NC(=O)c1c(N)nn2cc(F)cnc12 [I-C-62, 2-amino-6-fluoro-N-(4-(3-methylpyrazin-2-yl)pyridin-3-yl)pyrazolo[1,5-a]pyrimidine-3-carboxamide]	++ (Compounds with a Cisplatin sensitization value >0.02 μM but <0.2 μM are marked with “++.”)
CN(C)Cc1ccc(Oc2ccncc2NC(=O)c2c(N)nn3cc(F)cnc23)cn1 [I-O-3, 2-amino-N-(4-((6-((dimethylamino)methyl)pyridin-3-yl)oxy)pyridin-3-yl)-6-fluoropyrazolo[1,5-a]pyrimidine-3-carboxamide]	++ (Compounds with a Cisplatin sensitization value >0.02 μM but <0.2 μM are marked with “++.”)
COCC1CN(C(=O)C2CCN(c3c(F)cncc3NC(=O)c3c(N)nn4cc(F)cnc34)CC2)C1 [I-G-98, 2-amino-6-fluoro-N-(5-fluoro-4-(4-(3-(methoxymethyl)azetidine-1-carbonyl)piperidin-1-yl)pyridin-3-yl)pyrazolo[1,5-a]pyrimidine-3-carboxamide]	+++ (Compounds with a Cisplatin sensitization value of <0.02 μM are marked with “+++.”)
N#CCc1cnc2c(C(=O)Nc3cnccc3OC3CCCNC3)c(N)nn2c1 (racemic) [I-O-2, (R,S)-2-amino-6-(cyanomethyl)-N-(4-(piperidin-3-yloxy)pyridin-3-yl)pyrazolo[1,5-a]pyrimidine-3-carboxamide]	++ (Compounds with a Cisplatin sensitization value >0.02 μM but <0.2 μM are marked with “++.”)
